In patent US20250057808A1, “COMPOSITION COMPRISING BETA LACTAM FOR TREATING ALCOHOL DEPENDENCE AND ALCOHOL ASSOCIATED DISEASES OR CONDITIONS” (Temple University of the Commonwealth System of Higher …, priority 2023, published 2025):
“Also recorded” adds a separate entry of the source.

How the values were obtained:
xCT [1] = details: earlier studies, chronic ethanol; cited from earlier work
[2] = Ethanol drinking paradigm, three-bottle choice (MC-100093 50 mg/kg vs ceftriaxone 200 mg/kg); format: in vivo, P rats
Description: P rats were received from Indiana University School of Medicine (Indianapolis, IN, USA), and were housed in a 21° C. on a 12/12 h light/dark cycle-maintained room where they had free access to water and food. All experimental procedures were approved by the Institutional Animal Care and Use Committee (IACUC) of The University of Toledo, in accordance with the guidelines governing the use of animals in research of the National Institutes of Health as described in the Guidefor the Care and Use of Laboratory Animals.
We used an ethanol drinking paradigm as described previously by Alhaddad, et al. (2014). Briefly, animals started the experimental drinking procedure at age of 90 days. The animals had five weeks of exposure to continuous three-bottle choice drinking, 0%, 15% and 30%, v/v ethanol in water, available concurrently. Daily measurement of ethanol intake was performed (g of ethanol intake/kg of body weight/day). We measured the baseline ethanol drinking by average the intake during the last three weeks. Three groups of P rats (n=8-9/group) exposed to the five weeks ethanol exposure. At week 6, rats in each group received daily intraperitoneal injection of either MC-100093 at dose of 50 mg/kg (Ethanol-MC group), Ceftriaxone at dose of 200 mg/kg (Ethanol-CEF group, which also serves as positive control), or equivolume of saline vehicle (Ethanol group) for five days. This paradigm results in pharmacologically relevant blood alcohol concentration (50-200 mg %). Following the criteria for the development of ethanol dependence, rats whose average ethanol intake <4 g/kg/day were excluded from the study. Beside the ethanol exposed groups, another group of P rats (n=8) exposed to only water and food throughout the exposure procedures (control group).
(§1) All statistical analyses were conducted with Graphpad Prism software, with p-values of 0.05 or less being statistically significant. We performed a two-way (mixed model) ANOVA followed by Bonferroni multiple comparison post-hoc test to analyze 24 h ethanol consumption, 24 h water consumption, and daily body weight. For the Western blot and oil red O staining analysis, we performed one-way ANOVA with Newman-Keuls as a post hoc multiple comparison test to measure differences between groups as a percentage (relative to control values).

[3] = earlier and literature studies in rats; cited from earlier work
xCT [4] = assay: Western blot xCT expression in NAc-core, NAc-shell and liver (50 mg/kg study); format: in vivo, P rats; details: MC-100093 50 mg/kg or ceftriaxone 200 mg/kg i.p. 5 days
Description: (§2) We used micro-punch procedure to dissect the subregions of the NAc such as NAc-core and NAc-shell as well as the subregions of prefrontal cortex such as infralimbic (IL) and prelimbic (PL) from the brain on day 6 after the last injection day. P rats were removed from the cage and rapidly euthanized by CO2 inhalation followed by rapid decapitation with a guillotine. Brains were isolated and immediately frozen on dry ice and stored at −80° C. The stereotaxic coordinates provided by Paxinos and colleague's rat brain stereotactic atlas was used to isolate NAc-core and NAc-shell using a cryostat apparatus (−20° C.), which then kept at −80° C. for later western blot analyses.
(§3) Western Blot assay was performed to measure changes in the expression of GLT-1, xCT, mGluR1, mGluR5, PPAR-α, PPARγ, GAPDH and β-tubulin in the NAc-core and NAc-shell as described in previous publications. A lysis buffer containing protease and phosphatase inhibitors was used to generate a homogenate of liver, Nac-core, and Nac-shell samples. The amount of protein was quantified using a detergent compatible protein assay (Bio-Rad, Hercules, CA, USA) for each sample. Samples were mixed with laemmli dye and loaded with equal amounts on polyacrylamide gels (10%), which separated the proteins using electrophoresis. After that, polyvinylidene difluoride (PVDF) membranes were used to transfer the proteins electrophoretically from the gels. Membranes were incubated in 5% free-fat milk in Tris-buffered saline with Tween-20 (TBST) for 30-60 minutes at room temperature. Membranes were then incubated with appropriate primary antibodies overnight at 4° C.: rabbit anti-GLT-1 (1:5000, Abcam, ab41621), rabbit anti-xCT (1:2000, Abcam, ab175186), rabbit anti-mGluR1 (1:1000, Abcam, ab82211), rabbit anti-mGluR5 (1:1000, Abcam, ab76316), rabbit anti-PPAR-α (1:1000, Abcam, ab24509), and rabbit anti-PPARγ (1:1000, Abcam, ab209350). Mouse anti-β-tubulin (1:1000; BioLegend) was used as a loading control antibody for the brain samples and rabbit anti-GAPDH (1:5000; cell signaling) was used as a loading control antibody for the liver samples. Membranes were washed five times on the next day with TBST followed by incubation with appropriate secondary antibody (1:5000) for 90 minutes at room temperature. Chemiluminescent reagents (Super Signal West Pico, Pierce Inc.) were used to detect the proteins using a GeneSys imaging system to develop the digitized blot images. Water-control group data were represented as 100% and all other values were expressed relative to control group to detect changes in the expression of the protein of interest in the brain and liver samples.
as §1

PPAR-γ = assay: Western blot PPAR-γ expression in liver; format: in vivo, P rats; details: MC-100093 50 mg/kg or ceftriaxone 200 mg/kg i.p. 5 days; between all groups
Description: Western Blot assay was performed to measure changes in the expression of GLT-1, xCT, mGluR1, mGluR5, PPAR-α, PPARγ, GAPDH and β-tubulin in the NAc-core and NAc-shell as described in previous publications. A lysis buffer containing protease and phosphatase inhibitors was used to generate a homogenate of liver, Nac-core, and Nac-shell samples. The amount of protein was quantified using a detergent compatible protein assay (Bio-Rad, Hercules, CA, USA) for each sample. Samples were mixed with laemmli dye and loaded with equal amounts on polyacrylamide gels (10%), which separated the proteins using electrophoresis. After that, polyvinylidene difluoride (PVDF) membranes were used to transfer the proteins electrophoretically from the gels. Membranes were incubated in 5% free-fat milk in Tris-buffered saline with Tween-20 (TBST) for 30-60 minutes at room temperature. Membranes were then incubated with appropriate primary antibodies overnight at 4° C.: rabbit anti-GLT-1 (1:5000, Abcam, ab41621), rabbit anti-xCT (1:2000, Abcam, ab175186), rabbit anti-mGluR1 (1:1000, Abcam, ab82211), rabbit anti-mGluR5 (1:1000, Abcam, ab76316), rabbit anti-PPAR-α (1:1000, Abcam, ab24509), and rabbit anti-PPARγ (1:1000, Abcam, ab209350). […]

GLT-1 [5] = assay: Western blot GLT-1 expression in NAc-core, NAc-shell and liver (50 mg/kg study); format: in vivo, P rats; details: MC-100093 50 mg/kg or ceftriaxone 200 mg/kg i.p. 5 days
Description: as §2, §3, §1

fat content in the liver = assay: Liver Oil Red O staining (fat content); format: in vivo, P rats; details: MC-100093 50 mg/kg or ceftriaxone 200 mg/kg i.p. 5 days, control, ethanol, ethanol-CEF groups
Description: To measure the fat content in the liver sections, we used Oil Red O (Sigma, CAS Number 1320-06-5) staining on 10 μm thick formalin-fixed liver sections and placed in slides for further staining. The slides were stained with freshly prepared Oil Red O working solution 15 minutes then rinsed with 60% isopropanol. Slides were then rinsed with distilled water and mounted in aqueous mounting media and prepared for imaging. The degree of Oil Red O staining was determined at 20× magnification using a color video camera attached to an Olympus VS120 slide scanning microscope. Olympus OlyVIA software was used to analyze the images. The lipid droplets were quantified using Image J pro (NIH). Data are presented as the mean+SEM of the Oil Red O staining for each group.
as §1

PPAR-α = assay: Western blot PPAR-α expression in NAc-core, NAc-shell and liver; format: in vivo, P rats; details: MC-100093 50 mg/kg or ceftriaxone 200 mg/kg i.p. 5 days; among all groups
Description: as §2, §3
(§4) All statistical analyses were conducted with Graphpad Prism software, with p-values of 0.05 or less being statistically significant. […]

mGluR1 = assay: Western blot mGluR1 expression in NAc-core and NAc-shell; format: in vivo, P rats; details: MC-100093 50 mg/kg or ceftriaxone 200 mg/kg i.p. 5 days; among all groups
Description: as §2, §3, §4

mGluR5 = assay: Western blot mGluR5 expression in NAc-core and NAc-shell; format: in vivo, P rats; details: MC-100093 50 mg/kg or ceftriaxone 200 mg/kg i.p. 5 days
Description: as §2, §3, §4

GLT-1 [6] = details: earlier studies, chronic ethanol; cited from earlier work
[7] = ceftriaxone 200 mg/kg i.p. vs MC-100093 50 mg/kg i.p., days 2 through 5

SMILES: CO/N=C(\C(=O)N[C@@H]1C(=O)N2C(C(=O)O)=C(CSc3nc(=O)c(=O)[nH]n3C)CS[C@H]12)c1csc(N)n1 [Ceftriaxone, reference compound]
- xCT expression in the NAc (xCT [1]): attenuation of downregulation of GLT-1 as well as xCT expression; also recorded: upregulated GLT-1 and xCT expression in the NAc
- Body weight (grams) ([2]; MC-100093 50 mg/kg i.p. or ceftriaxone 200 mg/kg i.p. 5 days): Neither MC-100093 (50 mg/kg, i.p.) nor Ceftriaxone (200 mg/kg, i.p.) treatment has significant effect; also recorded: no significant effects
- Water intake (mL/day) ([2]; MC-100093 50 mg/kg i.p. or ceftriaxone 200 mg/kg i.p. 5 days, vs Ethanol-Saline group (MC-100093: at day 5 only)): significant increase in water consumption from day 1 through day 5; also recorded: significant increase in water consumption from day 2 through day 5
- Ethanol consumption (g/kg of average body weight/24 hr) ([2]; P rats after 5 wk ethanol, MC-100093 50 mg/kg i.p. or ceftriaxone 200 mg/kg i.p. daily 5 days, vs Ethanol-Saline group): significant decrease in ethanol consumption from day 1 through day 5; also recorded: significantly reduced ethanol consumption from day 2 through day 5; also recorded: attenuated ethanol drinking behavior
- Ethanol consumption, Ethanol-Ceftriaxone compared to Ethanol-MC group [2, 7]: significantly lower; also recorded: attenuate drinking behavior to a greater extent than MC-100093
- Water consumption, Ethanol-Ceftriaxone compared to Ethanol-MC group [2, 7]: significantly higher
- Ethanol drinking behavior / consumption [3]: decreased ethanol consumption in rats; also recorded: attenuated ethanol drinking behaviors
- Protein expression of xCT in the NAc-core (xCT [4]; among all groups): non-significant difference; also recorded: no significant difference
- Protein expression of xCT in the liver (xCT [4]; between all groups): no significant differences
- Protein expression of xCT in the NAc-shell (xCT [4]; vs Ethanol group): significantly higher level of xCT; also recorded: significantly increased xCT expression
- Protein expression of PPAR-γ in the liver (PPAR-γ): not changed significantly
- Protein expression of GLT-1 in the liver (GLT-1 [5]): normalized GLT-1 level; also recorded: normalize the PPAR-α and GLT-1 levels in the liver
- Protein expression of GLT-1 in the NAc-core (GLT-1 [5]; among Control, Ethanol, Ethanol-MC, Ethanol-CEF): non-significant difference; also recorded: no significant difference
- Protein expression of GLT-1 in the NAc-shell (GLT-1 [5]; vs Ethanol group): significantly increased
- Liver fat content (Oil Red O stained fat droplets) (fat content in the liver): no significant difference in fat content between control, ethanol-MC, and ethanol-CEF groups; also recorded: significantly higher fat droplet content in ethanol group (p<0.05) compared to control, ethanol-MC or ethanol-CEF groups; also recorded: alleviated the liver steatosis
- Protein expression of PPAR-α in the NAc-core (PPAR-α): non-significant differences; also recorded: did not detect significant changes
- Protein expression of PPAR-α in the NAc-shell (PPAR-α): non-significant differences; also recorded: did not detect significant changes
- Protein expression of mGluR1 in the NAc-core (mGluR1): non-significant difference; also recorded: no significant difference
- Protein expression of mGluR1 in the NAc-shell (mGluR1): non-significant differences; also recorded: no significant difference
- Protein expression of mGluR5 in the NAc-core (mGluR5; among all groups): non-significant difference; also recorded: no significant difference
- Protein expression of mGluR5 in the NAc-shell (mGluR5; vs control or ethanol groups): no significant change in the expression of mGluR5; also recorded: significantly downregulated in ethanol group compared to control, Ethanol-MC (50 mg/kg), and Ethanol-CEF (200 mg/kg) groups; also recorded: normalizing levels of mGluR5
- GLT-1 expression in the NAc (GLT-1 [6]): attenuation of downregulation of GLT-1 as well as xCT expression; also recorded: upregulated GLT-1 and xCT expression in the NAc

SMILES: Cc1ccc(C)c(OCCCC(C)(C)C(=O)O)c1 [Gemfibrozil]
- Ethanol drinking behavior / consumption [3]: reduced ethanol drinking behavior in rats

SMILES: CC1CC=NN1C(=O)c1cccnc1 (centres unmarked) [MS-153]
- xCT expression in the NAc (xCT [1]): upregulated GLT-1 and xCT expression in the NAc
- Ethanol drinking behavior / consumption [3]: attenuated ethanol drinking behaviors
- GLT-1 expression in the NAc (GLT-1 [6]): upregulated GLT-1 and xCT expression in the NAc
